Test results: patent US10689331B2, “IDO inhibitors” (Bristol-Myers Squibb Company, priority 2015, dated 2020)

Target: T1, human IDO1 (Homo sapiens, UniProt P14902)
T1 construct: expressed in transfected cells
Assay: HEK Human IDO-1 inhibition assay (kynurenine readout, Ehrlich reagent, absorbance 490 nm)
Format: cell-based
Settings: human IDO1/HEK293 cells, incubated 20 hours with compound; 500 nM reference standard = 100% inhibition
Method in brief: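 HEK293 cells stably expressing human IDO1, treated with compound for 20 h at 37 °C in phenol red-free RPMI/10% FBS. Kynurenine detected after TCA (0.2% final, 50 °C, 30 min) by Ehrlich reagent absorbance at 490 nm; IC50 normalised to 500 nM reference standard (100%) and DMSO (0%).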

T1 sequence (P14902 whole entry): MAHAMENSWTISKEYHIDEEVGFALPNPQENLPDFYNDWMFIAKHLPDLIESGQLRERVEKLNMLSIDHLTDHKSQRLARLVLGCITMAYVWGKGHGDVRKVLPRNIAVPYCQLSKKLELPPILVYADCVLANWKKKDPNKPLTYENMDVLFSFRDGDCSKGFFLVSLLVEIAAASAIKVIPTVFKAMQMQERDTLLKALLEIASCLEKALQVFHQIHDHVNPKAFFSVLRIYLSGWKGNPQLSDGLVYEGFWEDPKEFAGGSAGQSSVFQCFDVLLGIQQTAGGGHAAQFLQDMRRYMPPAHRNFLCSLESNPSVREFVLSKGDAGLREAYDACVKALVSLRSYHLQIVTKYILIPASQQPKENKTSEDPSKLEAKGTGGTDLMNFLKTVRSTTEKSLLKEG

SMILES	IC50 [nM]
CC(C)CN(c1cc(F)c(OCC(=O)O)cc1NC(=O)Nc1ccc(OC(F)(F)F)cc1)C1CCCCC1 [Example 127, 2-(4-(cyclohexyl(isobutyl)amino)-2-fluoro-5-(3-(4-(trifluoromethoxy)phenyl)ureido)phenoxy)acetic acid]	< 100
CC(C)CN(c1cc(F)c(OCC(=O)O)cc1NC(=O)Nc1ccccc1Cl)C1CCCCC1 [Example 123, 2-(5-(3-(2-chlorophenyl)ureido)-4-(cyclohexyl(isobutyl)amino)-2-fluorophenoxy)acetic acid]	≥ 100
COc1ccc(NC(=O)Nc2cc(OC(C)C(=O)O)ccc2N(CC(C)C)C2CCCCC2)c(F)c1 (single isomer, unassigned) [Example 64-1, 2-(4-(cyclohexyl(isobutyl)amino)-3-(3-(2-fluoro-4-methoxyphenyl)ureido)phenoxy)propanoic acid]	< 100
CCOC(=O)COc1ccc(N(CC(C)C)C2CCCCC2)c(NC(=O)Nc2ccc(Cl)cc2F)c1 [Example 42, ethyl 2-(3-(3-(4-chloro-2-fluorophenyl)ureido)-4-(cyclohexyl(isobutyl)amino)phenoxy)acetate]	< 5
CC(C)CN(c1cc(F)c(OCC(=O)O)cc1NC(=O)Cc1ccc(Cl)cc1F)C1CCCCC1 [Example 133, 2-(5-(2-(4-chloro-2-fluorophenyl)acetamido)-4-(cyclohexyl(isobutyl)amino)-2-fluorophenoxy)acetic acid]	< 100
CC(C)CN(c1ccc(OCc2nnn[nH]2)cc1NC(=O)Nc1ccc(Cl)cc1F)C1CCCCC1 [Example 96, 1-(5-((1H-tetrazol-5-yl)methoxy)-2-(cyclohexyl(isobutyl)amino)phenyl)-3-(4-chloro-2-fluorophenyl)urea]	< 5
CCOC(=O)C(C)Oc1ccc(N(CC(C)C)C2CCCCC2)c(NC(=O)Nc2ccc(Cl)cc2F)c1 (single isomer, unassigned) [Example 67-2, ethyl 2-(3-(3-(4-chloro-2-fluorophenyl)ureido)-4-(cyclohexyl(isobutyl)amino)phenoxy)propanoate]	< 5
CC(C)CN(c1c(F)cc(OCC(=O)NS(=O)(=O)C2CC2)cc1NC(=O)Nc1ccc(Cl)cc1F)C1CCCCC1 [Example 105, 2-(3-(3-(4-chloro-2-fluorophenyl)ureido)-4-(cyclohexyl(isobutyl)amino)-5-fluorophenoxy)-N-(cyclopropylsulfonyl)acetamide]	< 5
CCC(Oc1ccc(N(CC(C)C)C2CCCCC2)c(NC(=O)Nc2ccc(C)cc2)c1)C(=O)O (single isomer, unassigned) [Example 82-1, 2-(4-(cyclohexyl(isobutyl)amino)-3-(3-(p-tolyl)ureido)phenoxy)butanoic acid]	< 5
CCCC(Oc1ccc(N(CC(C)C)C2CCCCC2)c(NC(=O)Nc2ccccc2F)c1)C(=O)O (single isomer, unassigned) [Example 87-1, 2-(4-(cyclohexyl(isobutyl)amino)-3-(3-(2-fluorophenyl)ureido)phenoxy)pentanoic acid]	< 5
CC(C)CN(c1ccc(OC(C)C(=O)O)cc1NC(=O)Cc1ccc(F)cc1F)C1CCCCC1 (racemic) [Example 71, 2-(4-(cyclohexyl(isobutyl)amino)-3-(2-(2,4-difluorophenyl)acet-amido)phenoxy)propanoic acid]	< 100
CC(C)CN(c1ccc(OCC(=O)O)cc1NC(=O)Nc1ccc(Cl)cc1F)C1CCC(O)CC1 (stereo not shown) [Example 150, 2-(3-(3-(4-chloro-2-fluorophenyl)ureido)-4-((( )-4 hydroxycyclohexyl)(isobutyl)amino)phenoxy)acetic acid]	≥ 100
CC(C)CN(c1ccc(OC(C)C(=O)O)cc1NC(=O)Nc1ccc(Cl)cc1F)C1CCOC1 (stereo not shown) [Example 145, 2-(3-(3-(4-chloro-2-fluorophenyl)ureido)-4-(isobutyl(tetrahydrofuran-3-yl)amino)phenoxy)propanoic acid]	< 100
Cc1ccc(NC(=O)Nc2cc(OC(C)C(=O)O)ccc2N(CC(C)C)C2CCCCC2)c(F)c1 (racemic) [racemic 65]	< 5
CC(C)CN(c1ccc(OC(C)C(=O)O)cc1NC(=O)Nc1ccc(Cl)cc1F)C1CCOC1 (single isomer, unassigned) [Example 146-1, 2-(3-(3-(4-chloro-2-fluorophenyl)ureido)-4-(isobutyl(tetrahydrofuran-3-yl)amino)phenoxy)propanoic acid]	≥ 100
Cc1ccc(CC(=O)Nc2cc(OC(C)C(=O)O)ccc2N(CC(C)C)C2CCCCC2)c(F)c1 (racemic) [Example 76, 2-(4-(cyclohexyl(isobutyl)amino)-3-(2-(2-fluoro-4-methylphenyl)acetamido)phenoxy)propanoic acid]	< 100
CCC(Oc1ccc(N(CC(C)C)C2CCCCC2)c(NC(=O)Nc2ccc(Cl)cc2F)c1)C(=O)O (single isomer, unassigned) [Example 80-1, 2-(3-(3-(4-chloro-2-fluorophenyl)ureido)-4-(cyclohexyl(isobutyl)amino)phenoxy)butanoic acid]	< 5
CCC(Oc1ccc(N(CC(C)C)C2CCCCC2)c(NC(=O)Nc2ccccc2F)c1)C(=O)O (single isomer, unassigned) [Example 81-1, 2-(4-(cyclohexyl(isobutyl)amino)-3-(3-(2-fluorophenyl)ureido)phenoxy)butanoic acid]	< 5
CC(C)CN(c1ccc(OCC(=O)O)cc1NC(=O)Nc1ccc(C(F)(F)F)c(F)c1)C1CCCCC1 [Example 35, 2-(4-(cyclohexyl(isobutyl)amino)-3-(3-(3-fluoro-4-(trifluoromethyl)phenyl)ureido)phenoxy)acetic acid]	≥ 100
CC(C)CN(c1ccc(OCC(=O)O)cc1NC(=O)Cc1ccc(Cl)c(F)c1)C1CCCCC1 [Example 54, 2-(3-(2-(4-chloro-3-fluorophenyl)acetamido)-4-(cyclohexyl(isobutyl)amino)phenoxy)acetic acid]	≥ 100
CC(C)CN(c1ccc(OC(C)C(=O)O)cc1NC(=O)Nc1ccccc1F)C1CCCCC1 (single isomer, unassigned) [Example 59-1, 2-(4-(cyclohexyl(isobutyl)amino)-3-(3-(2-fluoro-phenyl)ureido)phenoxy)propanoic acid]	< 5
CC(C)CN(c1ccc(OC(C)C(=O)O)cc1NC(=O)Nc1cncnc1)C1CCCCC1 (single isomer, unassigned) [Example 58-1, 2-(4-(cyclohexyl(isobutyl)amino)-3-(3-(pyrimidin-5-yl)ureido)phenoxy)propanoic acid]	≥ 100
Cc1cc(NC(=O)Nc2cc(OCC(=O)O)ccc2N(CC(C)C)C2CCCCC2)on1 [Example 4, 2-(4-(cyclohexyl(isobutyl)amino)-3-(3-(3-methylisoxazol-5-yl)ureido)phenoxy)acetic acid]	< 100
CC(C)CN(c1cc(F)c(OCC(=O)O)cc1NC(=O)Nc1ccc(Br)cc1F)C1CCCCC1 [Example 125, 2-(5-(3-(4-bromo-2-fluorophenyl)ureido)-4-(cyclohexyl(isobutyl)amino)-2-fluorophenoxy)acetic acid]	< 5
CCCN(Cc1ccccc1)c1ccc(OCC(=O)O)cc1NC(=O)Cc1ccc(C)cc1 [Example 166, 2-(4-(benzyl(propyl)amino)-3-(2-(p-tolyl)acetamido)phenoxy)acetic acid]	≥ 100
